Patent US20260285888A1, “HETEROCYCLIC COMPOUND AND USE THEREOF” (OTSUKA PHARMACEUTICAL CO., LTD., priority 2023, published 2026)

Test: Study for confirmation of conversion to brexpiprazole in a buffer (stability of the evaluation compounds)
Type: physicochemical
Conditions: in buffer, average of duplicate; for Concentration of brexpiprazole formed: 60-minute reaction sample; for Concentration of evaluation compound decreased: decrease in 60-minute vs 0-minute reaction sample
Procedure: The conversion from the evaluation compounds to brexpiprazole in a buffer (i.e., the stability of the evaluation compounds) was evaluated.
The Example 1 compound was dissolved in acetonitrile/water (1:1, v/v) to 10 mmol/L and further diluted with acetonitrile/water (1:1, v/v) to 100 μmol/L for use.
The other Example compounds and the Reference Example 5 compound to Reference Example 7 compound were each dissolved in DMSO to 10 mmol/L and further diluted with acetonitrile to 100 μmol/L for use, except for the following compounds.
The compounds of Examples 52, 95, 96, 117, and 130 (EX 52, EX 95, EX 96, EX 117, and EX 130) were dissolved in acetonitrile/water (8:2, v/v) to 10 mmol/L and further diluted with acetonitrile to 100 μmol/L for use.
The compound of Example 97 (EX 97) was dissolved in acetonitrile/water (8:2, v/v) to 10 mmol/L and further diluted with acetonitrile/water (8:2, v/v) to 100 μmol/L for use.
The compounds of Examples 15 and 116 (EX 15 and EX 116) were dissolved in DMSO to 1 mmol/L and further diluted with acetonitrile to 100 μmol/L for use.
The reaction was conducted by preparing each reaction solution such that the final concentration of each component was as follows. The test was conducted in duplicate.
For the compounds of Examples 1 to 8, 10 to 19, 26 to 27, 37, 50, 87 to 89, 91, 116, 121, 123, 150, and 151 (EX 1 to EX 8, EX 10 to EX 19, EX 26 to EX 27, EX 37, EX 50, EX 87 to EX 89, EX 91, EX 116, EX 121, EX 123, EX 150, and EX 151), and the compounds of Reference Examples 5 to 7 (REX 5 to REX 7), the reaction solution without the evaluation compound (198 μl) was pre-incubated at 37° C. for 3 minutes, and then each of the evaluation compound solutions (2 μl) was added and stirred; thereafter, the reaction was started at 37° C. At 0 minutes or 60 minutes after the start of the reaction, the reaction was stopped by adding and stirring a reaction stop solution (1000 μl) composed of acetonitrile/isopropanol (4:1, v/v) containing internal standard substances. However, the 0-minute reaction sample (198 μl) was prepared by adding the evaluation compound (2 μl) after adding the reaction stop solution (1000 μl). The samples after stopping the reaction were used as the measurement samples. Calibration curve samples with the same composition were prepared (final concentrations of the evaluation compounds and brexpiprazole: 0.01, 0.1, and 1 μmol/L, with the proviso that for the evaluation compounds only, the 0-minute reaction samples were also used as calibration curve samples for 1 μmol/L).
For the compounds of Examples 24 to 25, 28 to 29, 32 to 36, 40 to 49, 51 to 60, 62 to 64, 66 to 77, 80 to 86, 90, 92 to 111, 113, 115, 117 to 120, 122, 124 to 130, 132 to 147, and 152 to 160 (EX 24 to EX 25, EX 28 to EX 29, EX 32 to EX 36, EX 40 to EX 49, EX 51 to EX 60, EX 62 to EX 64, EX 66 to EX 77, EX 80 to EX 86, EX 90, EX 92 to EX 111, EX 113, EX 115, EX 117 to EX 120, EX 122, EX 124 to EX 130, EX 132 to EX 147, and EX 152 to EX 160), the reaction solution without the evaluation compound (148.5 μl) was pre-incubated at 37° C. for 3 minutes, and then each of the evaluation compound solutions (1.5 μl) was added and stirred; thereafter, the reaction was started at 37° C. At 0 minutes or 60 minutes after the start of the reaction, the reaction was stopped by adding and stirring a reaction stop solution (600 μl) composed of acetonitrile/isopropanol (4:1, v/v) containing internal standard substances. However, the 0-minute reaction sample (148.5 μl) was prepared by adding the evaluation compound (1.5 μl) after adding the reaction stop solution (600 μl). The samples after stopping the reaction were used as the measurement samples. Calibration curve samples with the same composition were prepared (final concentrations of the evaluation compounds and brexpiprazole: 0.01, 0.1, and 1 μmol/L, with the proviso that for the evaluation compounds only, the 0-minute reaction samples were also used as calibration curve samples for 1 μmol/L). […]

Concentration of brexpiprazole formed	Concentration of evaluation compound decreased	SMILES
0 nM	-10 nM	CCCOP(=O)([O-])OC[N+]1(CCCCOc2ccc3ccc(=O)[nH]c3c2)CCN(c2cccc3sccc23)CC1 [EX 88, (4-(benzo[b]thiophen-4-yl)-1-(4-((2-oxo-1,2-dihydroquinolin-7-yl)oxy)butyl)piperazin-1-ium-1-yl)methyl propyl phosphate]
0 nM	90 nM	CCCC(=O)OCOP(=O)([O-])OC[N+]1(CCCCOc2ccc3ccc(=O)[nH]c3c2)CCN(c2cccc3sccc23)CC1 [EX 121]
0 nM	50 nM	CCC(C)(C)C(=O)OCOP(=O)([O-])OC[N+]1(CCCCOc2ccc3ccc(=O)[nH]c3c2)CCN(c2cccc3sccc23)CC1 [EX 122, (4-(benzo[b]thiophen-4-yl)-1-(4-((2-oxo-1,2-dihydroquinolin-7-yl)oxy)butyl)piperazin-1-ium-1-yl)methyl (((2,2-dimethylbutanoyl)oxy)methyl) phosphate]

Further lines, the compound ahead of its results:

SMILES	Concentration of brexpiprazole formed	Concentration of evaluation compound decreased
O=c1ccc2ccc(OCCCC[N+]3(COP(=O)([O-])OC[C@H]4CC[C@H](CO)CC4)CCN(c4cccc5sccc45)CC3)cc2[nH]1 [EX 86, (4-(benzo[b]thiophen-4-yl)-1-(4-((2-oxo-1,2-dihydroquinolin-7-yl)oxy)butyl)piperazin-1-ium-1-yl)methyl (((1r,4r)-4-(hydroxymethyl)cyclohexyl)methyl) phosphate]	0 nM	50 nM
COP(=O)([O-])OC[N+]1(CCCCOc2ccc3ccc(=O)[nH]c3c2)CCN(c2cccc3sccc23)CC1 [EX 87, (4-(benzo[b]thiophen-4-yl)-1-(4-((2-oxo-1,2-dihydroquinolin-7-yl)oxy)butyl)piperazin-1-ium-1-yl)methyl methyl phosphate]	0 nM	0 nM
CCCCOP(=O)([O-])OC[N+]1(CCCCOc2ccc3ccc(=O)[nH]c3c2)CCN(c2cccc3sccc23)CC1 [EX 89, (4-(benzo[b]thiophen-4-yl)-1-(4-((2-oxo-1,2-dihydroquinolin-7-yl)oxy)butyl)piperazin-1-ium-1-yl)methyl butyl phosphate]	0 nM	-70 nM
CCOCCOC(=O)[C@@H](C)OP(=O)([O-])OC[N+]1(CCCCOc2ccc3ccc(=O)[nH]c3c2)CCN(c2cccc3sccc23)CC1 [EX 109, (R)-(4-(benzo[b]thiophen-4-yl)-1-(4-((2-oxo-1.2-dihydroquinolin-7-yl)oxy)butyl)piperazin-1-ium-1-yl)methyl (1-(2-ethoxyethoxy)-1-oxopropan-2-yl) phosphate]	0 nM	-20 nM
O=c1ccc2ccc(OCCCC[N+]3(COP(=O)([O-])OCC(F)F)CCN(c4cccc5sccc45)CC3)cc2[nH]1 [EX 115, (4-(benzo[b]thiophen-4-yl)-1-(4-(2-oxo-1,2-dihydroquinolin-7-yl)oxy)butyl)piperazin-1-ium-1-yl)methyl (2,2-difluoroethyl) phosphate]	0 nM	50 nM
O=C(OCOP(=O)([O-])OC[N+]1(CCCCOc2ccc3ccc(=O)[nH]c3c2)CCN(c2cccc3sccc23)CC1)C12CC3CC(CC(C3)C1)C2 [EX 124, (((1s,3s)-adamantane-1-carbonyl)oxy)methyl ((4-(benzo[b]thiophen-4-yl)-1-(4-((2-oxo-1,2-dihydroquinolin-7-yl)oxy)butyl)piperazin-1-ium-1-yl)methyl) phosphate]	0 nM	100 nM
